ChEMBL document CHEMBL3885881, “DrugMatrix”

Organism: Rattus norvegicus
Test: DrugMatrix - Regimen: Daily Repeat
Format: toxicity, organism-based, Sprague-Dawley
Parameters: regimen Daily Repeat, gender Male, age 6-8 weeks
Conditions: in vivo, po, route oral GAVAGE, vehicle .5 % CMC; for BASOPHIL / EOSINOPHIL / ERYTHROCYTE COUNT / HEMATOCRIT / HEMOGLOBIN / LEUKOCYTE COUNT / LYMPHOCYTE / MEAN CORPUSCULAR HEMOGLOBIN / MEAN CORPUSCULAR HEMOGLOBIN CONCENTRATION / MEAN CORPUSCULAR VOLUME / MONOCYTE / NEUTROPHIL / PLATELET COUNT: tissue Blood; for ALANINE AMINOTRANSFERASE / ALBUMIN / ALKALINE PHOSPHATASE / ASPARTATE AMINOTRANSFERASE / BLOOD UREA NITROGEN / CHLORIDE / CHOLESTEROL / CREATINE PHOSPHOKINASE / CREATININE / GLUCOSE / PHOSPHORUS / POTASSIUM / SODIUM / TOTAL BILIRUBIN / TOTAL PROTEIN: tissue Plasma
[1] = 0 mg/kg, 72 h, dose level Control, time 3 day
[2] = 0 mg/kg, 120 h, dose level Control, time 5 day
[3] = 5 mg/kg, 72 h, dose level Low, time 3 day
[4] = 5 mg/kg, 120 h, dose level Low, time 5 day

CN1C(=O)CN=C(c2ccccc2)c2cc([N+](=O)[O-])ccc21 [NIMETAZEPAM]
BASOPHIL [1]: 1.52% | EOSINOPHIL [1]: 0.98% | ERYTHROCYTE COUNT [1]: 6.96 x10E6/uL | HEMATOCRIT [1]: 44.65% | HEMOGLOBIN [1]: 13.62 G/DL | LEUKOCYTE COUNT [1]: 9.83 x10E3/uL | LYMPHOCYTE [1]: 76.48% | MEAN CORPUSCULAR HEMOGLOBIN [1]: 19.57 pg | MEAN CORPUSCULAR HEMOGLOBIN CONCENTRATION [1]: 30.47 G/DL | MEAN CORPUSCULAR VOLUME [1]: 64.22 fL | MONOCYTE [1]: 2.13% | NEUTROPHIL [1]: 18.6% | PLATELET COUNT [1]: 1217.17 x10E3/uL | ALANINE AMINOTRANSFERASE [1]: 41 u/L | ALBUMIN [1]: 3.77 G/DL | ALKALINE PHOSPHATASE [1]: 411.83 u/L | ASPARTATE AMINOTRANSFERASE [1]: 62.83 u/L | BLOOD UREA NITROGEN [1]: 15.17 mg/dL | CHLORIDE [1]: 104.33 MEQ/L | CHOLESTEROL [1]: 71.17 mg/dL | CREATINE PHOSPHOKINASE [1]: 123.5 u/L | CREATININE [1]: 0.55 mg/dL | GLUCOSE [1]: 182.67 mg/dL | PHOSPHORUS [1]: 11.23 mg/dL | POTASSIUM [1]: 7.03 MEQ/L | SODIUM [1]: 148 MEQ/L | TOTAL BILIRUBIN [1]: 0.57 mg/dL | TOTAL PROTEIN [1]: 6.85 G/DL | BASOPHIL [2]: 1.35% | EOSINOPHIL [2]: 0.43% | ERYTHROCYTE COUNT [2]: 6.96 x10E6/uL | HEMATOCRIT [2]: 44.35% | HEMOGLOBIN [2]: 13.98 G/DL | LEUKOCYTE COUNT [2]: 9.45 x10E3/uL | LYMPHOCYTE [2]: 80.83% | MEAN CORPUSCULAR HEMOGLOBIN [2]: 20.1 pg | MEAN CORPUSCULAR HEMOGLOBIN CONCENTRATION [2]: 31.52 G/DL | MEAN CORPUSCULAR VOLUME [2]: 63.72 fL | MONOCYTE [2]: 2.37% | NEUTROPHIL [2]: 14.05% | PLATELET COUNT [2]: 1298 x10E3/uL | ALANINE AMINOTRANSFERASE [2]: 42.17 u/L | ALBUMIN [2]: 3.77 G/DL | ALKALINE PHOSPHATASE [2]: 419 u/L | ASPARTATE AMINOTRANSFERASE [2]: 66.67 u/L | BLOOD UREA NITROGEN [2]: 16.67 mg/dL | CHLORIDE [2]: 103.17 MEQ/L | CHOLESTEROL [2]: 66.33 mg/dL | CREATINE PHOSPHOKINASE [2]: 148.33 u/L | CREATININE [2]: 0.58 mg/dL | GLUCOSE [2]: 196.83 mg/dL | PHOSPHORUS [2]: 11.8 mg/dL | POTASSIUM [2]: 6.47 MEQ/L | SODIUM [2]: 148.33 MEQ/L | TOTAL BILIRUBIN [2]: 0.53 mg/dL | TOTAL PROTEIN [2]: 6.77 G/DL | BASOPHIL [3]: 2.83% | EOSINOPHIL [3]: 0.3% | ERYTHROCYTE COUNT [3]: 7.13 x10E6/uL | HEMATOCRIT [3]: 44.5% | HEMOGLOBIN [3]: 13.9 G/DL | LEUKOCYTE COUNT [3]: 11.4 x10E3/uL | LYMPHOCYTE [3]: 76.5% | MEAN CORPUSCULAR HEMOGLOBIN [3]: 19.5 pg | MEAN CORPUSCULAR HEMOGLOBIN CONCENTRATION [3]: 31.2 G/DL | MEAN CORPUSCULAR VOLUME [3]: 62.43 fL | MONOCYTE [3]: 2.87% | NEUTROPHIL [3]: 16.73% | PLATELET COUNT [3]: 1489.33 x10E3/uL | ALANINE AMINOTRANSFERASE [3]: 36.67 u/L | ALBUMIN [3]: 3.67 G/DL | ALKALINE PHOSPHATASE [3]: 291 u/L | ASPARTATE AMINOTRANSFERASE [3]: 57 u/L | BLOOD UREA NITROGEN [3]: 11.67 mg/dL | CHLORIDE [3]: 102.67 MEQ/L | CHOLESTEROL [3]: 68.67 mg/dL | CREATINE PHOSPHOKINASE [3]: 130.67 u/L | CREATININE [3]: 0.5 mg/dL | GLUCOSE [3]: 173 mg/dL | PHOSPHORUS [3]: 11.97 mg/dL | POTASSIUM [3]: 6.37 MEQ/L | SODIUM [3]: 149.67 MEQ/L | TOTAL BILIRUBIN [3]: 0.27 mg/dL | TOTAL PROTEIN [3]: 6.6 G/DL | BASOPHIL [4]: 0.95% | EOSINOPHIL [4]: 2.55% | ERYTHROCYTE COUNT [4]: 7 x10E6/uL | HEMATOCRIT [4]: 43.15% | HEMOGLOBIN [4]: 13.8 G/DL | LEUKOCYTE COUNT [4]: 10.5 x10E3/uL | LYMPHOCYTE [4]: 75.25% | MEAN CORPUSCULAR HEMOGLOBIN [4]: 19.7 pg | MEAN CORPUSCULAR HEMOGLOBIN CONCENTRATION [4]: 32 G/DL | MEAN CORPUSCULAR VOLUME [4]: 61.5 fL | MONOCYTE [4]: 2.15% | NEUTROPHIL [4]: 18.45% | PLATELET COUNT [4]: 1383 x10E3/uL | ALANINE AMINOTRANSFERASE [4]: 34.67 u/L | ALBUMIN [4]: 3.57 G/DL | ALKALINE PHOSPHATASE [4]: 351 u/L | ASPARTATE AMINOTRANSFERASE [4]: 62.67 u/L | BLOOD UREA NITROGEN [4]: 11.67 mg/dL | CHLORIDE [4]: 102.67 MEQ/L | CHOLESTEROL [4]: 62.67 mg/dL | CREATINE PHOSPHOKINASE [4]: 168.67 u/L | CREATININE [4]: 0.6 mg/dL | GLUCOSE [4]: 170.33 mg/dL | PHOSPHORUS [4]: 13 mg/dL | POTASSIUM [4]: 7.1 MEQ/L | SODIUM [4]: 147 MEQ/L | TOTAL BILIRUBIN [4]: 0.4 mg/dL | TOTAL PROTEIN [4]: 6.37 G/DL
